This is an account of results in paper PMC8025302, “Structural and biophysical characterization of the tandem substrate-binding domains of the ABC importer GlnPQ” (Open Biology, 2021).

One test addresses T1, SBD1-2(D417F) (Lactococcus lactis, UniProt Q9CES5, D417F).
T1 sequence (Q9CES5 27-484 D417F): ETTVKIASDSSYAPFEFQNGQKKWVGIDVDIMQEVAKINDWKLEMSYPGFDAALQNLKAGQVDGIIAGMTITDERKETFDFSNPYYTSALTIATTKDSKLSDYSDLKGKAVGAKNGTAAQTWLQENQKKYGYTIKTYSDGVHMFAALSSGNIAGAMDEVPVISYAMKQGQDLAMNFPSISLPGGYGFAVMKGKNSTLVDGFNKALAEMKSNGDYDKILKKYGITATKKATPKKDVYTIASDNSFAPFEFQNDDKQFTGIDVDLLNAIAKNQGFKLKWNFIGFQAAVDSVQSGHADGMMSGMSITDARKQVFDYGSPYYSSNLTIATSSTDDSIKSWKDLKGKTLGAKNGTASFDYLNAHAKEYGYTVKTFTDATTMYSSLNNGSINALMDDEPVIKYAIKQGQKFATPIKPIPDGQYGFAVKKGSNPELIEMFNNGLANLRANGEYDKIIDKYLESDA
Put plainly: Isothermal titration calorimetry, tandem variant with inactive SBD2. The settings on record: binding to SBD1 in SBD1-2(D417F) (inactive SBD2); ITC. A general note: Isothermal titration calorimetry measures the heat released or taken up as one component is titrated into another.

The target of another test is T2, SBD1 in SBD1-Δ5-SBD2 (Lactococcus lactis, UniProt Q9CES5, DEL252-256).
T2 sequence (Q9CES5 27-484 DEL252-256): T1 sequence (Q9CES5 27-484 D417F)
Nature of the test: Isothermal titration calorimetry, SBD1 site of linker deletion mutant. In kind it is binding. The settings on record: ITC.

Test [1] addresses T3, SBD1^A (SBD1(T159C/G87C)) (Lactococcus lactis, UniProt Q9CES5, T159C, form not given).
T3 sequence (Q9CES5 29-251 T159C): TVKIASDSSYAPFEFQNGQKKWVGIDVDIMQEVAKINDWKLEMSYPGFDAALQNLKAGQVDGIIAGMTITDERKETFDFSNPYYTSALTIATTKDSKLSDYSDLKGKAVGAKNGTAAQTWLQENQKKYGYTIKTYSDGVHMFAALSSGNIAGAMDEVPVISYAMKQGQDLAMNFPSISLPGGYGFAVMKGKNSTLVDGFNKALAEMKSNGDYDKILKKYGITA
Nature of the test: smFRET / ALEX spectroscopy titration, single SBD1^A. It is filed as binding. To be noted: single domain SBD1^A, Alexa Fluor 555/647, read-out: apparent KD.

The target in a further test is T4, SBD1^A-2 (Lactococcus lactis, UniProt Q9CES5, T159C, form not given).
T4 sequence (Q9CES5 27-484 T159C): T1 sequence (Q9CES5 27-484 D417F)
Nature of the test: smFRET / ALEX spectroscopy titration, tandem SBD1^A-2. It is filed as binding. The settings on record: Alexa Fluor 555/647, read-out: apparent KD.

Another test addresses T5, SBD1(E184W)-2 (Lactococcus lactis, UniProt Q9CES5, E184W).
T5 sequence (Q9CES5 27-484 E184W): T1 sequence (Q9CES5 27-484 D417F)
Nature of the test: Isothermal titration calorimetry, tandem variant with inactive SBD1. To be noted: binding to SBD2 in SBD1-2(E184W) (inactive SBD1); ITC.

A further test addresses T6, SBD2 in SBD1-Δ5-SBD2 (Lactococcus lactis, UniProt Q9CES5, DEL252-256).
T6 sequence (Q9CES5 27-484 DEL252-256): T1 sequence (Q9CES5 27-484 D417F)
Put plainly: Isothermal titration calorimetry, SBD2 site of linker deletion mutant. It is filed as binding. To be noted: SBD1-Δ5-SBD2, high-affinity site (SBD2), no asparagine; ITC figure 6f.

The target in test [2] is T7, SBD2^C (SBD2(T369C/S451C)) (Lactococcus lactis, UniProt Q9CES5, S451C/T369C).
T7 sequence (Q9CES5 255-484 T369C/S451C): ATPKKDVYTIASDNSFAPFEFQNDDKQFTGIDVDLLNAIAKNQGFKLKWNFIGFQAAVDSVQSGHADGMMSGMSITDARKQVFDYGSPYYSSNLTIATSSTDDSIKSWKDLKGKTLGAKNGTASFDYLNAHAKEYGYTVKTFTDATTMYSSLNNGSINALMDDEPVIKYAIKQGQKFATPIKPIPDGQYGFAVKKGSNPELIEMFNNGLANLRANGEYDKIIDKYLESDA
Put plainly: smFRET / ALEX spectroscopy titration, single SBD2^C. It is filed as binding. The settings on record: single domain SBD2^C, Alexa Fluor 555/647, read-out: apparent KD.

The target of another test is T8, SBD1-2^C (Lactococcus lactis, UniProt Q9CES5, S451C/T369C).
T8 sequence (Q9CES5 27-484 T369C/S451C): T1 sequence (Q9CES5 27-484 D417F)
Put plainly: smFRET / ALEX spectroscopy titration, tandem SBD1-2^C. In kind it is binding. The settings on record: Alexa Fluor 555/647, read-out: apparent KD.

Several values for one entry are separate records, joined by “and”; a condition that tells them apart may be missing. Equal values may be shown once.

Turning to `NC(=O)C[C@H](N)C(=O)O` [asparagine], the Kd on SBD1-2(D417F) amounted to 400 ± 60 nM; at SBD1 in SBD1-Δ5-SBD2, 60 nM; in test [1] it was 140 nM; on SBD1^A-2, 75 nM.
Regarding `NC(=O)CC[C@H](N)C(=O)O` [glutamine], the Kd at SBD1(E184W)-2 is 1500 ± 800 nM; at SBD1 in SBD1-Δ5-SBD2 it was 25800 nM and 19000 nM; on SBD2 in SBD1-Δ5-SBD2 it was 1700 nM; in test [2] it was 1500 nM and ~1500 nM; on SBD1-2^C, 900 nM and ~900 nM; in test [1], 130000 nM. Also, the Kd on SBD1^A-2 was determined as 300000 nM.
